# According to patent US20200061007A1, “CANCER STEM CELL PROLIFERATION INHIBITOR” (NATIONAL INSTITUTE OF ADVANCED INDUSTRIAL SCIENCE AND …, priority 2014, published 2020):
# How the values were obtained:
# [1] = tested on: Pdx1, glucagon gene expression in human pancreatic cancer cell spheroids; assay: Quantitative RT-PCR of pancreatic tissue differentiation markers; assay type: cell-based; settings: suspension culture with Am80 for 1 week
# Protocol: Subsequently, total RNA was extracted from pancreatic cancer cells prepared by performing suspension culture in the presence of Am80 for 1 week, and quantitative RT-PCR was carried out using primers specific to pancreatic tissue-specific differentiation markers.
# [2] = tested on: Human Pancreatic Cancer Stem Cells Transplanted to Nude Mice; assay: Ratio of pancreatic cancer stem cells in removed tumor (anti-CD133 flow cytometry); assay type: in vivo; settings: Am80 3 mg/kg/day for 1 month, vs control
# Protocol: Pancreatic cancer cells (1×10^6 cells) containing pancreatic cancer stem cells were subcutaneously transplanted to nude mice. Mice in which tumor formation was found 2 weeks later were subjected to administration of Am80 for 1 month at 3 mg/kg/day. Thereafter, the tumor was removed, and the tumor cells were treated by trypsin, followed by measuring the ratio of pancreatic cancer stem cells by flow cytometry using an anti-CD133 antibody.
# [3] = tested on: human prostate cancer cell line LNCaP; assay: Growth inhibition of LNCaP in vitro; assay type: cell-based; settings: Homo sapiens, 96 hours of exposure, RPMI1640 with 10% FBS
# Protocol: A human prostate cancer cell line LNCaP, containing cells positive for cancer stem cell markers, was cultured in RPMI1640 medium supplemented with 10% FBS, and the growth inhibitory action by the combination of Am80 and 5-AZ was studied. […] Thus, in order to study the growth inhibitory action, Am80 was used within the concentration range of 0.125 μM to 1 μM with a common ratio of 2, and 5-AZ was used within the concentration range of 1.56 μM to 12.5 μM with a common ratio of 2. In cases of use of these agents in combination, the growth inhibitory action was studied using these concentrations.
# [4] = tested on: human pancreatic cancer cells containing pancreatic cancer stem cells; assay: Growth of subcutaneously transplanted pancreatic cancer in nude mice; assay type: in vivo; settings: Am80 3 mg/kg/day for 1 month, vs control
# Protocol: Pancreatic cancer cells (1×10^6 cells) containing pancreatic cancer stem cells were subcutaneously transplanted to nude mice. Mice in which tumor formation was found 2 weeks later were subjected to administration of Am80 for 1 month at 3 mg/kg/day.
# Pancreatic cancer cells (1×10^6 cells) containing pancreatic cancer stem cells were subcutaneously transplanted to nude mice. Mice in which tumor formation was found 2 weeks later were subjected to daily administration of Am80 at 3 mg/kg/day and administration of gemcitabine at 50 mg/kg at intervals of 3 days for 1 month. […] Gem herein represents gemcitabine.
# Pancreatic cancer cells (1×10^6 cells) containing pancreatic cancer stem cells were subcutaneously transplanted to nude mice. Mice in which tumor formation was found 2 weeks later were subjected to daily administration of Am80 at 3 mg/kg/day and administration of VPA at 500 mg/kg at intervals of 3 days for 1 month.
# [5] = tested on: human pancreatic cancer cells MIA-Paca2; assay: Tumor volume, MIA-Paca2/nude mice; assay type: in vivo
# Protocol: A tumor piece of human pancreatic cancer cells MIA-Paca2 containing cells positive for cancer stem cell markers was subcutaneously transplanted to the dorsal part of each of 6-week-old female BALB/cAJc1-nu nude mice (4 mice/group, 5 mice only for the control group) using a trocar needle. At the time when the tumor volume reached 100 to 200 mm^3, the administration was started. Am80 was orally administered once a day at a dose of 2 mg/kg for 21 continuous days, and DXL was intravenously administered at a dose of 5 mg/kg from Day 1, 3 times at intervals of 4 days. In the combination group, the agents were administered at the same doses as, and by the same administration methods as, those in the cases of administration of each single agent. Measurement of the tumor diameter was carried out until the next day of the completion of the administration (Day 22). Based on the measured values of the longitudinal diameter and the transverse diameter, the tumor volume (mm^3) was determined according to the following formula: longitudinal diameter×transverse diameter^2/2. In the control group, physiological saline was intraperitoneally administered from Day 1, 3 times at intervals of 4 days.
# [6] = tested on: human breast cancer cell line MCF-7; assay: Growth inhibition of MCF-7 in vitro; assay type: cell-based; settings: Homo sapiens, MCF7; MCF-7, 96 hours of exposure, RPMI1640 with 2% FBS
# Protocol: A human breast cancer cell line MCF-7, containing cells positive for cancer stem cell markers, was cultured in RPMI1640 medium supplemented with 2% FBS, and the growth inhibitory action by the combination of Am80 and 5-AZ was studied. The IC50 values of the agents determined by 96 hours of the exposure were 1 μM and 20 μM, respectively. Thus, in order to study the growth inhibitory action, Am80 was used within the concentration range of 0.125 μM to 1 μM with a common ratio of 2, and 5-AZ was used within the concentration range of 2.5 μM to 20 μM with a common ratio of 2. In cases of use of these agents in combination, the growth inhibitory action was studied using these concentrations.
# [7] = tested on: Human Pancreatic Cancer Cell Panc-1 Spheroids; assay: ALDH activity (ALDEFLUOR, flow cytometry) in Panc-1 spheroids; assay type: cell-based; settings: suspension culture with Am80 for 1 week
# Protocol: As shown in Example 1, Am80 suppresses formation of cell clusters of the pancreatic cancer cell line in the suspension-culture state, and this might be due to a decrease in the number of the stem cells that act as the seeds of the cell clusters. It is known that the activity of aldehyde dehydrogenase (ALDH) is high in hematopoietic stem cells and progenitor cells, but low in differentiated cells. In view of this, a precursor Bodipy-aminoacetaldehyde (ALDEFLUOR, Stem Cell Technologies) was added to pancreatic cancer cells prepared by performing suspension culture in the presence of Am80 for 1 week, and the number of cells positive for the fluorescence of Bodipy-aminoacetate produced by metabolism by the aldehyde dehydrogenase activity was analyzed by quantification by flow cytometry.
structure (smiles),measurement,setting,value
"CC1(C)CCC(C)(C)c2cc(NC(=O)c3ccc(C(=O)O)cc3)ccc21 [Am80, tamibarotene]","gene expression of Pdx1, glucagon and the like",[1],increased gene expression dependently on the Am80 concentration
same,ratio of pancreatic cancer stem cells (CD133) in tumor,[2],action to suppress pancreatic cancer stem cells in vivo
same,IC50,[3],2000 nM
same,growth of the pancreatic cancer,[4],could be suppressed in vivo compared to the control
same,tumor volume Day 1,"[5]; Am80 2 mg/kg oral daily 21 days, DXL 5 mg/kg i.v. 3 times at intervals of 4 days, Day 1",151.3 mm^3
same,tumor volume Day 5,"[5]; Am80 2 mg/kg oral daily, DXL 5 mg/kg i.v., Day 5",182.1 mm^3
same,tumor volume Day 9,"[5]; Am80 2 mg/kg oral daily, DXL 5 mg/kg i.v., Day 9",255.5 mm^3
same,tumor volume Day 13,"[5]; Am80 2 mg/kg oral daily, DXL 5 mg/kg i.v., Day 13",348.8 mm^3
same,tumor volume Day 17,"[5]; Am80 2 mg/kg oral daily, DXL 5 mg/kg i.v., Day 17",429.9 mm^3
same,tumor volume Day 22,"[5]; Am80 2 mg/kg oral daily, DXL 5 mg/kg i.v., Day 22",466.4 mm^3
same,IC50,[6],1000 nM
same,ALDH activity (ALDH-positive cells),[7],concentration-dependent decrease
